Entries after “also recorded” stand apart in the source; their conditions may differ. Read-outs that look alike come from different tables or passages of the source.
Columns and labels:
[1] = tested on: isolated tick salivary gland; assay: fluid secretion (salivation) in the isolated tick salivary gland, modified Ramsay assay; parameters: species or system Amblyomma americanum; details: isolated tick salivary gland
[2] = tested on: isolated tick salivary gland; assay: ion secretion in saliva of the isolated tick salivary gland; parameters: species or system Amblyomma americanum
mosquitoes = assay: topical toxicity to mosquitoes (species not specified); format: in vivo; details: dose of 10 μg per mg; within 24 h
AeKir1 = AeKir1 (Aedes aegypti, UniProt L0EQS9); assay: thallium (Tl+) flux assay; format: cell-based; details: means (n = 3); read-out: IC50 μM (95% Cl)
Kir1.1 = Kir1.1 (Homo sapiens (Human), UniProt P48048); assay: thallium (Tl+) flux assay; format: cell-based, mammalian
hKir2.1 = hKir2.1 (Homo sapiens (Human), UniProt P63252); assay: thallium (Tl+) flux assay; format: cell-based
Kir7.1 = Kir7.1 (Homo sapiens (Human), UniProt O60928); assay: thallium (Tl+) flux assay; format: cell-based, mammalian
Ae. aegypti = assay: in vivo diuresis assay; parameters: species or system Aedes aegypti; details: topical, 1.7 μg/mg mosquito
Protocol: The K^+-PBS contained the following (in mM): 92.2 NaCl, 47.5 KCl, 10 Na2HPO4, and 2 KH2PO4 (pH 7.5). Each treatment group of 5 mosquitoes was transferred into a separate graduated, packed-cell volume tube (MidSci, St. Louis, Mo.) and held for 1 h at 28° C. The volume excreted by the mosquitoes was measured visually via the graduated column at the bottom of the tube. At least 8 replicates (5 mosquitoes per replicate) were performed for each treatment.

An. gambiae = assay: mosquito fecundity, eggs laid; format: in vivo, Anopheles gambiae; details: 72 h post blood feeding; VU041 ~1 μg/mg, VU937 ~10 μg/mg
Protocol: Briefly, adult female mosquitoes were given access to an anesthetized mouse for 60 min. […] After treatment, individual female mosquitoes were transferred to Drosophila vials (Fisher Scientific, Pittsburgh, OA) containing 2 mL of water. The total number of eggs was counted 72 hours after each mosquito was transferred into a vial. Any mosquitoes that died during this 72-hour period were excluded from the analysis. All assays were performed in an environmental chamber that was maintained at 27° C. and 75% relative humidity; mosquitoes were given access to 10% sucrose solution ad libitum. At least 25 female mosquitoes were used per replicate for each treatment group; each treatment was repeated on three separate broods, giving a total number of individuals from 75-113 for each group.

[3] = tested on: honey bees (Apis mellifera); assay: acute topical toxicity in adult honey bees; format: in vivo; details: 48 h, VU041 1 mg/bee (~10 μg/mg), bifenthrin 0.1 μg/bee
Protocol: Frames of late-stage honeybee (A. mellifera) pupae were taken from four colonies at The Ohio State University Honey Bee Lab in Wooster, Ohio, and maintained in a dark humid incubator at 34° C. (Darwin Chambers Co., St. Louis, Mo., model H024) until adult bees emerged. New adults were brushed from frames daily, placed in wooden screen cages (21×14×12 cm), and provided with 1:1 (w/w) sucrose in water.
Acute toxicity experiments in adult bees were performed as follows: Twenty-four hours after emergence, adult honey bees in cages were anaesthetized with carbon dioxide, divided into groups of approximately 20 bees each, and placed in plastic-coated paper cups (177 cm^3; UNIQ Paper Yogurt Cup, Frozen Dessert Supplies, Gilbert, Ariz.) covered with cotton cheesecloth. […] As a positive control, some bees were treated with 3 μl of bifenthrin (0.1 μg/μl). Negative control bees were treated with 3 μl of solvent. Applications were made using a 20 μl micropipette (Fisherbrand Finnpipette F2, Fisher Scientific, Pittsburgh, Pa.) with a disposable plastic tip. […] Toxicity to honey bees was recorded at 48 h, rather than the 24 h used for mosquitoes, to allow for the possibility of delayed toxicity due to the larger body size of the bee. Bees showing no movement 48 h after treatment were scored as dead.

[4] = means (n = 3), read-out: IC50 μM (95% Cl)

Chain of hKir2.1 (P63252 whole entry): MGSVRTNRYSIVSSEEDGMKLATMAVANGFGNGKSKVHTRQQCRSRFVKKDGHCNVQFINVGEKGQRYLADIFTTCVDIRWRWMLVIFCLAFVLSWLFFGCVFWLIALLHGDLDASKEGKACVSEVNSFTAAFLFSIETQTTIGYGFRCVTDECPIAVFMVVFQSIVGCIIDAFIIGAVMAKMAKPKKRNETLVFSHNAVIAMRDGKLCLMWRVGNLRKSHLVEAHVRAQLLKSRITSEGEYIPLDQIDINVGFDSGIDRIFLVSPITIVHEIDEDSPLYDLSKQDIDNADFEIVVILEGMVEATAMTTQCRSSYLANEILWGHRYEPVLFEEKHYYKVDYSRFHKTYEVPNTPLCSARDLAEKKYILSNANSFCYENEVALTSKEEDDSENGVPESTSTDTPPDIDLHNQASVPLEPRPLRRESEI
Chain of Kir1.1 (P48048 whole entry): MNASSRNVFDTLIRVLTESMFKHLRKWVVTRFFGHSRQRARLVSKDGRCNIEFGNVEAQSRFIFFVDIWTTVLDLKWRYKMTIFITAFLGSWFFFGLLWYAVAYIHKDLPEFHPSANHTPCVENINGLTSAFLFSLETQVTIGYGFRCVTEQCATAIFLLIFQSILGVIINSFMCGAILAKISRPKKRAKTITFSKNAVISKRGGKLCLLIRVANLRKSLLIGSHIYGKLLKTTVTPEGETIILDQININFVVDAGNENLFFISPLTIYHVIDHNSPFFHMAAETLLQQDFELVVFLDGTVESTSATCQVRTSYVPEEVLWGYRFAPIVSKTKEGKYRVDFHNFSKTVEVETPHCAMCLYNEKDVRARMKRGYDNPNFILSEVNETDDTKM
Chain of Kir7.1 (O60928 whole entry): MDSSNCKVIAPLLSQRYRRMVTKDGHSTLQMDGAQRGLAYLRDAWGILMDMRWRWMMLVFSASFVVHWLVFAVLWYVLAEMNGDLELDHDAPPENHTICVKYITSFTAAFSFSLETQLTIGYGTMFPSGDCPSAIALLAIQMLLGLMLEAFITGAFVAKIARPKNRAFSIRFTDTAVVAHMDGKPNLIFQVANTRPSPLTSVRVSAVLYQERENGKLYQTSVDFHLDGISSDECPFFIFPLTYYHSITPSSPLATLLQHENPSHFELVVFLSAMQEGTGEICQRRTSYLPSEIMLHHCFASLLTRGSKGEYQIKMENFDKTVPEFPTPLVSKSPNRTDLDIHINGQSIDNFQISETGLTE
Chain of AeKir1 (L0EQS9 1-486): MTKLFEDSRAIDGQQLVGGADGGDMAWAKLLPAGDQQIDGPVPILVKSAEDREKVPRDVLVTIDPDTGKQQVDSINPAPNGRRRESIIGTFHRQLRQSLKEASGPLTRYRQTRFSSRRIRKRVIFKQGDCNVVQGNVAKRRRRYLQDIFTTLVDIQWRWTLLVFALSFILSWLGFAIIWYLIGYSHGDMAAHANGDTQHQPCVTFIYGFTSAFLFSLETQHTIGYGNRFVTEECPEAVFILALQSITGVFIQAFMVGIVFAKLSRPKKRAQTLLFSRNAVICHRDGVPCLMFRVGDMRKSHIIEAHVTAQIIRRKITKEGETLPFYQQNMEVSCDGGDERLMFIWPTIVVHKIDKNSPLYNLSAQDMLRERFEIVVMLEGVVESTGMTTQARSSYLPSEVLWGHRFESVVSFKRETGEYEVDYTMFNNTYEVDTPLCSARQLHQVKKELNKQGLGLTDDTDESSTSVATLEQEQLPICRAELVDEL

For O=C(Cn1nc(C(F)(F)F)c2c1CCCC2)N1CCCc2ccccc21 [VU041, 1-(3,4-dihydroquinolin-1(2H)-yl)-2-(3-(trifluoromethyl)-4,5,6,7-tetrahydro-1H-indazol-1-yl)ethan-1-one], the “reduction of salivary output / saliva secretion compared to control” value [1] was “approximately 60%”, the “K+ and Na+ ion secretion rates in salivary droplets” value [2] was “significantly reduced” and the lethality against mosquitoes (mosquitoes) was about 100%. The IC50 (AeKir1) was 1.7 µM, the inhibition at 30 µM (Kir1.1; concentration of 30 μM) was under 10% and the IC50 (Kir1.1; [4]) was over 30 µM. For the same compound, the IC50 (hKir2.1; SAR libraries, read-out: hKir2.1 IC50) was 11.3 µM, the IC50 (hKir2.1; means (n = 3), selectivity panel, read-out: IC50 μM (95% Cl)) was 12.7 µM and the inhibition at 30 µM (Kir7.1; concentration of 30 μM) was under 10%. For the same compound, the IC50 (Kir7.1; [4]) was over 30 µM, the “lowering of diuretic capacity compared to controls” value (Ae. aegypti) was about 51% and the “median number of eggs laid per mosquito” value (An. gambiae) was “significantly lower median number of eggs per mosquito”. For the same compound, the “mortality of adult honey bees” value [3] was “did not cause significant mortality; also recorded: not toxic”.
